The values below come from patent US5591715A, “Methods and compositions for reducing multidrug resistance” (priority 1995, dated 1997).

Converted amounts (≈) assume the structure as drawn.

One data set concerns KB 3-1 cells. Nature of the data set: cells. The format is cell-based. As to conditions: Homo sapiens, KB 3-1, 1 h, Table V, read-out: MFI (T/U), treated cells/untreated cells; for fold induction at 100 µg/mL: KB3-1, 100 μg/ml.
Data set [1] has as its system KB 8-5-11 cells. Nature of the data set: cells. The format is cell-based. To be noted: Homo sapiens, 1 h, Table V, read-out: MFI (T/U), treated cells/untreated cells; for fold induction at 100 µg/mL: KB8-5-11, 100 μg/ml. From the text:
A series of PEG domains of average MW 600, 900 or 1500 was synthesized.

The test system of data set [2] is KB 8-5-11 cells. The data set can be described thus: Relative RMA activity: percent KB 8-5-11 (MDR) cells showing rhodamine 123 fluorescence in the range of sensitive KB 3-1 cells. The format is cell-based, human. As to conditions: Table V, none = 0.6. On the procedure:
Efflux of rhodamine 123 from MDR cells was also examined to provide direct information about the action of the transport protein Mdr 1. Enhanced accumulation of the P-gp substrate, rhodamine 123, in multidrug resistant KB 8-5-11 cells was used to measure RMA activity. Flow cytometric analysis was performed as described (Coon et al., 1991; Buckingham et al. 1995). Briefly, multidrug resistant KB 8-5-11 cells (0.5×10^6 cells/ml) were incubated with […] rhodamine 123 at 37° C. in the presence or absence of the putative RMA. After 60 min., mean intracellular steady state rhodamine 123 fluorescence was measured on an Epics Profile How Cytometer (Coulter, Hialeah, Fla.).
SOLUTOL® HS 15 was fractionated using reverse phase liquid chromatography to determine where the activity resides in the preparation. An approximately 50% solution of SOLUTOL® HS 15 was prepared in 100% acetonitrile (ACN) and water. One ml of the SOLUTOL® HS 15 solution was injected onto a Phenomenex IB-Sil reversed phase column. The column has 5 μm particles, and is 4.6 mm internal diameter by 150 mm. The flow rate was 2.0 ml/min. The mobile phase was as follows: A=5% ACN and B=100% ACN. The gradient was linear with 100% A to 100% B in 15 minutes, then was maintained at 100% B. Fractions were collected at 30 second intervals. The various fractions were assayed for RMA activity as described in Example III. […] 145-149, 1989.
The various fractions obtained from the reverse phase liquid chromatography were analyzed to determine the RMA activity in each fraction. The fractions were then analyzed by infrared spectrophotometry.
^a Percent cells KB85-11 (MDR) showing rhodamine 123 fluorescence in
the range of sensitive cell (KB31) in the same experiment.
CREMOPHOR® EL was fractionated by super critical extraction. Approximately 25 grams of CREMOPHOR® EL was thoroughly mixed with 20 grams of hydromatrix (silicon dioxide) manufactured by Varian--Harbor City, Calif. 40710 and loaded into a stainless steel high pressure extraction cell. The extraction cell was maintained at 40° C. Supercritical carbon dioxide was pumped into the extraction cell at a rate of approximately 3 liters of gaseous carbon dioxide per minute (4 ml of supercritical carbon dioxide per minute). The extractable material was dissolved under the extraction conditions, and separated from the matrix. The supercritical carbon dioxide solution with dissolved component was then depressurized to evaporate the carbon dioxide gas, and to precipitate the solute. […]
^a Percent KB 85-11 (MDR) cells showing rhodamine 123 fluorescence in
The RMA activity of various fatty acids, PEG monoesters and PEG diesters was determined by the method described in Example III. […]

The test system of the next data set is Mdr1 protein. To be noted: cited from earlier work.
The test system of data set [3] is multidrug resistant cells. As to conditions: cited from earlier work.
Data set [4] can be described thus: In vivo tolerability of RMA. As to conditions: dosages achieving equivalent or superior reversal of MDR vs verapamil.
A short description of data set [5]: in vitro. To be noted: human, kb 3-1 cells.
Data set [6] in a line: in vitro. As to conditions: human, kb 8-5-11 cells.
A short description of data set [7]: in vitro. To be noted: human, k562/iii cells. On the procedure:
The chromogenic substrate, MTT (Sigma), was used to enumerate viable cells. […] For the Resistance Modification Index (RMI, Eliason et al., 1990), cells were prepared in microtiter plates and incubated with the indicated drugs and RMA. RMI was calculated as the IC50 of drug alone/IC50 of drug+RMA. The average RMI was calculated from at least three independent assays.
Growth is related as % relative to untreated cells.

A short description of data set [8]: in vitro. To be noted: human, kb 8-5 cells.

For the compound `CCCCCCCC/C=C\CCCCCCCC(=O)O` [Oleic Acid], the fold induction at 100 µg/mL was 2.1 in the data set with KB 3-1 cells and 1.7 in the data set on KB 8-5-11 cells [1]. Moreover, the “Relative RMA Activity” value with KB 8-5-11 cells [2] (100 μg/ml) stood at 2.7%.

Consider `COc1cc2c(c(OC)c1OC)-c1ccc(OC)c(=O)cc1[C@@H](NC(C)=O)CC2` [Colchicine, colchicine], for which, in the data set with Mdr1 protein, the “competition for vinblastine binding” value was “does not compete for vinblastine binding” and the “interaction with identified drug-binding site on Mdr1 protein” value was “interact weakly with the identified drug-binding site on the Mdr1 protein”.

As to `[N-]=[N+]=[N-]` [azide], the “RMA activity / reversal of multidrug resistance (literature)” value in data set [3] (in vitro) is on record as “reverse multidrug resistance in vitro”.

For the compound `COc1ccc(CCN(C)CCCC(C#N)(c2ccc(OC)c(OC)c2)C(C)C)cc1OC` (stereo not shown) [Verapamil], the “effect against VP-16 multidrug resistance (literature)” value in data set [3] was “not effective against VP-16 multidrug resistance”. Moreover, in data set [3] (drug resistant cells), the “intracellular localization of doxorubicin with added agent (literature)” value was “doxorubicin is localized mainly in the nucleus in drug resistant cells”. For the same compound, the in vivo tolerability entry in data set [4] is “marked toxicity”. Moreover, the CC50 (in general, the concentration giving 50% cytotoxicity) at 72 h is 40 µg/mL (≈ 88 µM) in the data set “in vitro [5]”, 27 µg/mL (≈ 59.4 µM) in “in vitro [6]”, 38 µg/mL (≈ 83.6 µM) in “in vitro [7]” and 10 µg/mL (≈ 22 µM) in the data set “in vitro [8]”.

With `CCCCCCCCCCCCCCCCCC(=O)O` [Stearic Acid], the fold induction at 100 µg/mL in the data set on KB 3-1 cells is 1.9; in the data set with KB 8-5-11 cells [1], 1.4. In addition, in the data set on KB 8-5-11 cells [2] (100 μg/ml), the “Relative RMA Activity” value amounted to 2.1%.

As for `CC/C=C\C/C=C\C/C=C\CCCCCCCC(=O)O` [Linolenic Acid], the fold induction at 10 µg/mL turned out to be 1.2 in the data set with KB 3-1 cells (KB3-1, 10 μg/ml) and 0.9 with KB 8-5-11 cells [1] (KB8-5-11, 10 μg/ml). In addition, the fold induction at 100 µg/mL in the data set on KB 3-1 cells and with KB 8-5-11 cells [1] was 1.7 in each case. For the same compound, the entries for the “Relative RMA Activity” value in the data set with KB 8-5-11 cells [2] (10 μg/ml) and in the data set on KB 8-5-11 cells [2] (100 μg/ml) were 1.3% and 9.2%, respectively.
